The assay deals with ATF4 translation. In words: ATF4 cell based assay (ATF4 reporter assay, NanoLuc luciferase fused to 5'-UTR of ATF4). The conditions noted are these: SH-SY5Y-ATF4-NanoLuc cells challenged with Thapsigargin for 14-18 hours; average of a set of two or more experimental runs; read-out: average ATF4 pathway inhibitory activity (IC50). The text has this:
The ATF4 reporter assay measures the effect of Thapsigargin induced cellular stress on ATF4 expression. For this reporter assay, a stable cell line was created by transfecting SH-SY5Y cells with a plasmid containing the NanoLuc® luciferase gene fused to the 5′-UTR of ATF4, under the control of the CMV promoter. The ATF4 5′-UTR contains two open reading frames which mediate the cellular stress-dependent translation of the reporter gene. Clones stably expressing the reporter construct were isolated and selected based on the luminescence response to thapsigargin and inhibition of this signal by test compounds. Briefly, SH-SY5Y-ATF4-NanoLuc cells were challenged with Thapsigargin for 14-18 hours to determine the stress effect with or without test compounds. Cells were propagated in growth media consisting of 90% DMEM F12 (InVitrogen #11320-033), 10% Fetal Bovine Serum (Gibco #10438-026), 5 mM Glutamax (Gibco #35050-061), 5 mM Hopes, (Gibco #15630-080), and 0.5 mg/ml Geneticin (Gibco #10131-027). Cells were prepared for the assay by removing all media from cells, washing the plated cells with phosphate buffered saline, and detached by adding a solution comprised of 10% Tryple express solution (InVitrogen 12604-021) and 90% enzyme-free cell dissociation buffer HANKS base (Gibco 13150-016). The trypsin was deactivated by adding assay media comprised of 90% phenol-red free DMEM F12 (InVitrogen, 11039), 10% Fetal Bovine Serum (Gibco #10438-026), (5 mM Glutamax (Gibco #35050-061), mM Hopes, (Gibco #15630-080), and 0.5 mg/ml Geneticin (Gibco #10131-027). Suspended cells were spun down at 300 g for 5 min, the supernatant was removed and the cell pellet was suspended in warm media (30-37° C.) comprised as above at (1e6 cell/ml). Assay plates were prepared by adding 250 nL of compound stock solution in 100% DMSO to each well, followed by dispensing 20 microliters/well cell suspension to deliver 15-20 k cell/well. Cells were incubated for 1 hour at 37° C. Then, 5 μL of 1.5 μM or 1 μM of Thapsigargin (final concentration: 200-300 nM) was added to each well of cells. Assay plates containing cells were incubated for 14-18 hours at 37° C. The measurement of luciferase produced by the ATF4 constructs was measured as follows. Aliquots of the Nano-Glo reagent (Nano-Glo® Luciferase Assay Substrate, Promega, N113, Nano-Glo® Luciferase Assay Buffer, Promega, N112 (parts of Nano-Glo® Luciferase Assay System, N1150) were brought to room temperature, the substrate and buffer were mixed according to manufacturer's instructions. The cell plates were equilibrated to room temperature. 25microliters/well of the mixed Nano-Glo reagent were dispensed into assay wells and pulse spun to settle contents and the plate was sealed with film. The plates were incubated at room temperature for 1 hour before detecting luminescence on an Envision plate reader.
`O=C(COc1ccc(Cl)cc1)NC1CCN(CC(O)COc2ccc(Cl)cc2)CC1` (centres unmarked) [Example 11, 2-(4-chlorophenoxy)-N-(1-(3-(4-chlorophenoxy)-2-hydroxypropyl)piperidin-4-yl)acetamide]: the IC50 amounted to 32 nM.
For `O=C(COc1ccc(Cl)nc1)NCC1CCCN(C(=O)COc2ccc(Cl)cc2)C1` (centres unmarked) [Example 29, N-((1-(2-(4-chlorophenoxy)acetyl)piperidin-3-yl)methyl)-2-((6-chloropyridin-3-yl)oxy)acetamide], the IC50 was more than 1000 nM.
Regarding `O=C(COc1ccc(Cl)cc1)NC1CCN(C(=O)CCCc2ccc(Cl)cc2)CC1` [Example 37, 2-(4-chlorophenoxy)-N-(1-(4-(4-chlorophenyl)butanoyl)piperidin-4-yl)acetamide], the IC50 was 98.7 nM.
Regarding `O=C(NCCc1ccc(Cl)cc1)C1CCN(C(=O)COc2ccc(Cl)cc2)CC1` [Example 24, N-(4-chlorophenethyl)-1-(2-(4-chlorophenoxy)acetyl)piperidine-4-carboxamide], the IC50 is 201 nM.
Consider `O=C(COc1ccc(Cl)nc1)NC1CCN(CCCOc2ccc(Cl)cc2)CC1` [Example 43, N-(1-(3-(4-chlorophenoxy)propyl)piperidin-4-yl)-2-((6-chloropyridin-3-yl)oxy)acetamide], for which the IC50 was 58.4 nM.
As for `O=C(COc1ccc(Cl)cc1)NCCC1CCCN(C(=O)COc2ccc(Cl)cc2)C1` (centres unmarked) [Example 28, 2-(4-chlorophenoxy)-N-(2-(1-(2-(4-chlorophenoxy)acetyl)piperidin-3-yl)ethyl)acetamide], the figure is less than 1000 nM; as for `O=C(COc1ccc(Cl)cc1)NCC1CCN(CCCOc2ccc(Cl)cc2)CC1` [Example 49, 2-(4-chlorophenoxy)-N-((1-(3-(4-chlorophenoxy)propyl)piperidin-4-yl)methyl)acetamide], more than 1000 nM; as for `O=C(COc1ccc(Cl)cc1)NC1CCN(CCCOc2ccc(Cl)cc2)C(C(=O)O)C1` (centres unmarked) [Example 59, 4-(2-(4-chlorophenoxy)acetamido)-1-(3-(4-chlorophenoxy)propyl)piperidine-2-carboxylic acid], 172 nM.
Next, `O=C(NCCOc1ccc(Cl)cc1)C1CCN(CCCOc2ccc(Cl)cc2)CC1` [Example 40, N-(2-(4-chlorophenoxy)ethyl)-1-(3-(4-chlorophenoxy)propyl)piperidine-4-carboxamide]: more than 1000 nM; `O=C(COc1ccc(Cl)cc1)NC1CCN(CCOc2ccc(Cl)cc2)CC1F` (centres unmarked) [Example 50, 2-(4-chlorophenoxy)-N-(1-(2-(4-chlorophenoxy)ethyl)-3-fluoropiperidin-4-yl)acetamide]: 93.9 nM.
As for `O=C(COc1ccc(Cl)cc1)NC1CCN(C(=O)COc2ccc(Cl)cc2)CC1F` (centres unmarked) [Example 30, 2-(4-chlorophenoxy)-N-(1-(2-(4-chlorophenoxy)acetyl)-3-fluoropiperidin-4-yl)acetamide], the IC50 came out at 110 nM.
With `O=C(COc1ccc(Cl)cc1)NC1CCN(CCCOc2ccc(Cl)cc2)CC1` [Example 2, 2-(4-chlorophenoxy)-N-(1-(3-(4-chlorophenoxy)propyl)piperidin-4-yl)acetamide], the IC50 is less than 4000 nM.
As for `O=C(COc1ccc(Cl)cc1)NC1CCN(CCCOc2ccc(Cl)nc2)CC1` [Example 17, 2-(4-chlorophenoxy)-N-(1-(3-((6-chloropyridin-3-yl)oxy)propyl)piperidin-4-yl)acetamide], the figure is 76.8 nM; as for `O=C(COc1ccc(Cl)cc1)NC1CCCN(C(=O)COc2ccc(Cl)cc2)C1` (centres unmarked) [Example 27, 2-(4-chlorophenoxy)-N-(1-(2-(4-chlorophenoxy)acetyl)piperidin-3-yl)acetamide], more than 1000 nM.
As for `O=C(NCCOc1ccc(Cl)cc1)C1CCN(CCOc2ccc(Cl)cc2)CC1` [Example 39, N,1-bis(2-(4-chlorophenoxy)ethyl)piperidine-4-carboxamide], the figure is more than 1000 nM.
As for `O=C(COc1ccc(C2CC2)cc1)NC1CCN(CCCOc2ccc(Cl)cc2)CC1` [Example 56, N-(1-(3-(4-chlorophenoxy)propyl)piperidin-4-yl)-2-(4-cyclopropylphenoxy)acetamide], the figure is more than 1000 nM.
Turning to `CN(C(=O)COc1ccc(Cl)cc1)C1CCN(CCCOc2ccc(Cl)cc2)CC1` [Example 57, 2-(4-chlorophenoxy)-N-(1-(3-(4-chlorophenoxy)propyl)piperidin-4-yl)-N-methylacetamide], the IC50 came to 61.2 nM.

As a reminder, the IC50 is the concentration at which inhibition is half-maximal.

Source of the values: patent US11547704B2, “Chemical compounds” (GlaxoSmithKline Intellectual Property Development Limited, priority 2016, dated 2023).
